Laboratory results reported in patent US20230102554A1 (GB002, INC., priority 2019, published 2023).

Tests used:
[1] = target: T1, Human PDGFRβ, cytoplasmic domain (GST-PDGFRβ) (Homo sapiens, UniProt P09619); experiment: Human PDGFRβ biochemical inhibition assay (off-chip Mobility Shift Assay)
T1 construct: made in house
In short: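 GST-tagged cytoplasmic domain (aa 557-1106) from baculovirus was incubated 1 h at room temperature with compound, CSKtide, ATP at Km and Mg²⁺ in HEPES buffer, pH 7.5. Phosphorylated and unphosphorylated peptide were separated by off-chip mobility shift, and the product ratio P/(P+S) gave percent inhibition.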

[2] = target: T2, Human PDGFRα, cytoplasmic domain (GST-PDGFRα) (Homo sapiens, UniProt P16234); experiment: Human PDGFRα biochemical inhibition assay (off-chip Mobility Shift Assay)
T2 construct: made in house
T2 sequence (P16234 550-1089 T674I): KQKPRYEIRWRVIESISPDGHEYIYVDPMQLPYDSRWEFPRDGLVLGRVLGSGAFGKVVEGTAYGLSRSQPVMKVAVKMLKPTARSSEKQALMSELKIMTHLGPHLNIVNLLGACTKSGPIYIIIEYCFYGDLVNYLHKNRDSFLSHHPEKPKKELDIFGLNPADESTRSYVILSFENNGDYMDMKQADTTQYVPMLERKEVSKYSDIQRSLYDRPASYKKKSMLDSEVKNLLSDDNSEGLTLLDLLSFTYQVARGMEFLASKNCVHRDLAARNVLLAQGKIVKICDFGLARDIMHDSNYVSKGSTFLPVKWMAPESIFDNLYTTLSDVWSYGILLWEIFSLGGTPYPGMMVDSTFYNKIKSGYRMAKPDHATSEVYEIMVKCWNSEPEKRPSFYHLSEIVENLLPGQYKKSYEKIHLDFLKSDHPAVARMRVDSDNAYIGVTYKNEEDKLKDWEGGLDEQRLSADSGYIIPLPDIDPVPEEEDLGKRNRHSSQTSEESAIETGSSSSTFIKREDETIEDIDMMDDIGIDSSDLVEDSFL

T1 sequence (P09619 with tags, fused parts or gaps): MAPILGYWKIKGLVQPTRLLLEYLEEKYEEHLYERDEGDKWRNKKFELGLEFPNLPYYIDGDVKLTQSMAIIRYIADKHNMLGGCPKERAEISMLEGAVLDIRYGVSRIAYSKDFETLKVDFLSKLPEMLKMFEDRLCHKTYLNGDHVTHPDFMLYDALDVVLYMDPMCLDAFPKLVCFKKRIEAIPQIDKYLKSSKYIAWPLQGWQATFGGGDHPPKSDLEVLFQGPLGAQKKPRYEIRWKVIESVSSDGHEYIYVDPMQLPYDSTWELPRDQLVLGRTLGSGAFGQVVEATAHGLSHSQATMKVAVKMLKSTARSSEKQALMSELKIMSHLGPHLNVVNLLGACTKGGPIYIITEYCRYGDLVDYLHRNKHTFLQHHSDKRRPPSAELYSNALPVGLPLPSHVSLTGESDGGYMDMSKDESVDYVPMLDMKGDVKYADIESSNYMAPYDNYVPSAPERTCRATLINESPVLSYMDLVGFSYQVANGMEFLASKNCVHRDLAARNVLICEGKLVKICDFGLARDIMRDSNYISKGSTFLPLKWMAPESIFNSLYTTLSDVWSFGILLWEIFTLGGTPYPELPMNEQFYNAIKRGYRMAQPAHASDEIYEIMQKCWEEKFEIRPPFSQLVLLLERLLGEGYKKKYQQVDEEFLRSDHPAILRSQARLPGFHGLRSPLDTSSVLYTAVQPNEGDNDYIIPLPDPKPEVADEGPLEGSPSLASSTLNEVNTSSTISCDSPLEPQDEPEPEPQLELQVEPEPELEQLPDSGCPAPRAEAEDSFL

SMILES | IC50 [1] [nM] | IC50 [2] [nM]
CC(=O)OC(C)OC(=O)c1ccc(C(=O)Nc2cccc([C@H](C)Nc3cnc4cnn(C)c4n3)c2)cc1C (stereo partly drawn) [Compound 256, 1-acetoxyethyl 2-methyl-4-((3-((S)-1-((1-methyl-1H-pyrazolo[3,4-b]pyrazin-6-yl)amino)ethyl)phenyl)carbamoyl) benzoate] | < 300 | < 300
C[C@H](Nc1cnc2cnn(C)c2n1)c1cccc(NC(=O)[C@H]2C[C@H]2C(F)(F)F)c1 [Compound 53, (1S,2R)-N-(3-((S)-1-((1 methyl-1H-pyrazolo[3,4-d]pyrazin-6-yl)amino)ethyl)phenyl)-2-(trifluoromethyl)cyclopropane-1-carboxamide] | ≥ 1000 | ≥ 1000
CCn1cc2ncc(N[C@@H](C)c3cccc(NC(=O)c4ccc(CN5CCOCC5)cc4)c3)nc2n1 [Compound 374, (S)-N-(3-(1-((2-ethyl-2H-pyrazolo[3,4-b]pyrazin-6-yl)amino)ethyl)phenyl)-4-(morpholinomethyl)benzamide] | 300 to 1000 | 300 to 1000
COc1ccc(-n2ccc3ncc(N[C@@H](C)c4cccc(NC(=O)c5cncc(C)c5)c4)cc32)cc1OC [Compound 6, (S)—N-(3-(1-((1-(3,4-dimethoxyphenyl)-1H-pyrrolo[3,2-b]pyridin-6-yl)amino)ethyl)phenyl)-5-methylnicotinamide] | ≥ 1000 | < 300
CCn1cc2ncc(N[C@@H](C)c3cccc(NC(=O)c4cnc(NC)c(C)c4)c3)nc2n1 [Compound 380, (S)-N-(3-(1-((2-ethyl-2H-pyrazolo[3,4-b]pyrazin-6-yl)amino)ethyl)phenyl)-5-methyl-6-(methylamino)nicotinamide] | 300 to 1000 | < 300
Cc1cc(C(=O)Nc2cccc([C@H](C)Nc3cnc4cnn(C)c4n3)c2)ccc1C(=O)OCCO [Compound 257, 2-hydroxyethyl (S)-2-methyl-4-((3-(1-((1-methyl-1H-pyrazolo[3,4-b]pyrazin-6-yl)amino)ethyl)phenyl)carbamoyl) benzoate] | < 300 | < 300
Cc1cncc(C(=O)Nc2cc(F)cc([C@H](C)Nc3cnc4cnn(C)c4n3)c2)c1 [Compound 171, (S)-N-(3-fluoro-5-(1-((1-methyl-1H-pyrazolo[3,4-b]pyrazin-6-yl)amino)ethyl)phenyl)-5-methylnicotinamide] | < 300 | < 300
CCn1cc2ncc(N[C@@H](C)c3cccc(NC(=O)c4ccc(CN5CCN(C)CC5)c(C(F)F)c4)c3)nc2n1 [Compound 504, (S)-3-(difluoromethyl)-N-(3-(1-((2-ethyl-2H-pyrazolo[3,4-b]pyrazin-6-yl)amino)ethyl)phenyl)-4-((4-methylpiperazin-1-yl)methyl)benzamide] | < 300 | < 300
C=Cc1ccc(C(=O)Nc2cccc([C@H](C)Nc3cnc4cnn(C)c4n3)c2)cc1C [Compound 246, (S)-3-methyl-N-(3-(1-((1-methyl-1H-pyrazolo[3,4-b]pyrazin-6-yl)amino)ethyl)phenyl)-4-vinylbenzamide] | < 300 | < 300
CNc1ncc(C(=O)Nc2cccc([C@H](C)Nc3cnc4[nH]cc(-c5cnn(C)c5)c4n3)c2)cc1C [Compound 587, (S)-5-methyl-N-(3-(1-((7-(1-methyl-1H-pyrazol-4-yl)-5H-pyrrolo[2,3-b]pyrazin-2-yl)amino)ethyl)phenyl)-6-(methylamino)nicotinamide] | < 300 | < 300
CCn1cc2ncc(N[C@@H](C)c3cccc(NC(=O)Cc4ccc(C(F)(F)F)c(F)c4)c3)nc2n1 [Compound 628, (S)-N-(3-(1-((2-ethyl-2H-pyrazolo[3,4-b]pyrazin-6-yl)amino)ethyl)phenyl)-2-(3-fluoro-4-(trifluoromethyl)phenyl)acetamide] | ≥ 1000 | < 300
CCn1cc2ncc(N[C@@H](C)c3cc(NC(=O)c4cnc(C)c(C)c4)ccc3C)nc2n1 [Compound 509, (S)-N-(3-(1-((2-ethyl-2H-pyrazolo[3,4-b]pyrazin-6-yl)amino)ethyl)-4-methylphenyl)-5,6-dimethylnicotinamide] | < 300 | < 300
CCn1cc2ncc(N[C@@H](C)c3cc(NC(=O)c4ccc(CN5CCN(C)CC5)c(C)c4)ccc3F)nc2n1 [Compound 457, (S)-N-(3-(1-((2-ethyl-2H-pvrazolo[3,4-b]pyrazin-6-yl)amino)ethyl)-4-fluorophenyl)-3 methyl-4-((4-methylpiperazin-1-yl)methyl)benzamide] | < 300 | < 300
CCn1cc2ncc(N[C@@H](C)c3cc(NC(=O)Cc4ccc(C)cn4)ccc3C)nc2n1 [Compound 660, (S)-N-(3-(1-((2-ethyl-2H-pyrazolo[3,4-b]pyrazin-6-yl)amino)ethyl)-4-methylphenyl)-2-(5-methylpyridin-2-yl) acetamide] | 300 to 1000 | < 300
CCn1cc2ncc(N[C@@H](C)c3cccc(NC(=O)c4ccc(CN5CCC(F)(F)CC5)c(C)c4)c3)nc2n1 [Compound 476, (S)-4-((4,4-difluoropiperidin-1-yl)methyl)-N-(3-(1-((2-ethyl-2H-pyrazolo[3,4-b]pyrazin-6-yl)amino)ethyl)phenyl)-3-methylbenzamide] | 300 to 1000 | < 300
CCn1cc2ncc(N[C@@H](C)c3cccc(NC(=O)c4cncc(C(C)(C)F)c4)c3)nc2n1 [Compound 280, (S)-N-(3-(1-((2-ethyl-2H-pyrazolo[3,4-b]pyrazin-6-yl)amino)ethyl)phenyl)-5-(2-fluoropropan-2-yl)nicotinamide] | < 300 | < 300
COc1ccc2nc(N[C@@H](C)c3cccc(NC(=O)c4cncc(C)c4)c3)cnc2c1 [Compound 33, (S)-N-(3-(1-((6-methoxyquinoxalin-2-yl)amino)ethyl)phenyl)-5-methylnicotinamide] | < 300 | < 300
C[C@H](Nc1cnc2[nH]ccc2n1)c1cccc(NC(=O)c2cnn(C3CCC3)c2)c1 [Compound 598, (S)-N-(3-(1-((5H-pyrrolo[2,3-b]pyrazin-2-yl)amino)ethyl)phenyl)-1-cyclobutyl-1H-pyrazole-4-carboxamide] | < 300 | < 300
CCn1cc2ncc(N[C@@H](C)c3cc(NC(=O)Cc4ccc(C(C)(C)O)cn4)ccc3C)nc2n1 [Compound 705, (S)-N-(3-(1-((2-ethyl-2H-pyrazolo[3,4-b]pyrazin-6-yl)amino)ethyl)-4-methylphenyl)-2-(5-(2-hydroxypropan-2-yl)pyridin-2-yl)acetamide] | ≥ 1000 | ≥ 1000
CCn1cc2ncc(N[C@@H](C)c3cc(NC(=O)Cc4cnc(C5CC5)c(F)c4)ccc3F)nc2n1 [Compound 691, (S)-2-(6-cyclopropyl-5-fluoropyridin-3-yl)-N-(3-(1-((2-ethyl-2H-pyrazolo[3,4-b]pyrazin-6-yl)amino)ethyl)-4-fluorophenyl)acetamide] | ≥ 1000 | < 300
CCn1cc2ncc(N[C@@H](C)c3cccc(NC(=O)c4cnc5[nH]ncc5c4)c3)nc2n1 [Compound 60, (S)-N-(3-(1-((2-ethyl-2H-pyrazolo[3,4-b]pyrazin-6-yl)amino)ethyl)phenyl)-1H-pyrazolo[3,4-b]pyridine-5-carboxamide] | ≥ 1000 | ≥ 1000
